Results: patent publication US20250288599A1, “PHARMACEUTICAL COMPOSITIONS AND METHODS FOR TREATING OSTEOARTHRITIS” (INSIGNIA PHARMACEUTICALS, LLC, priority 2024, published 2025)
Like-named read-outs stand apart in the source and are kept apart here.

Tests used:
[1] = system: prostaglandin I2 (PGI2) in primary human synoviocytes; assay: PGI2 in IL-1β-stimulated primary human osteoarthritic synoviocytes, 24 h; format: cell-based; conditions: IL-1β 1 ng/ml
Procedure: FIG. 25 is a bar graph that depicts the concentration of prostaglandin I2 (PGI2) present in primary human synoviocytes from patients with osteoarthritis that were stimulated with 1 ng/ml final concentration of IL-1β for 24 hours in the presence of varying concentrations of DA and Dex in view of controls. PGI2 concentration response mirrored PGE2 concentrations after DA treatment. […] It is noted that prostaglandin H2 (PGH2) was also tested and was not detected in either cell culture media or from cell lysates. Without being bound by theory, it is believed that PGH2 is an intermediate and is (near) immediately converted into downstream prostaglandins and therefore levels of PGH2 are not detectable.

[2] = target: PLA2 isolated from bee venom (Apis mellifera, UniProt P00630); format: biochemical
Sequence of PLA2 isolated from bee venom (P00630 34-167 limits assumed): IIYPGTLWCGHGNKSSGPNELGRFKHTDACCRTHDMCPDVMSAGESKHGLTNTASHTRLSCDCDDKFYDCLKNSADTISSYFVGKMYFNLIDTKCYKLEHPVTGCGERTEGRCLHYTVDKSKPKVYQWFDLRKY

[3] = system: IL-1β release from human THP1 macrophages; assay: Two-hit (LPS then ATP) inflammasome activation model, IL-1β release from THP1 macrophages; format: cell-based; conditions: for IC50: Homo sapiens
Text: The proinflammatory cytokine, IL-1β, is released from cells upon activation of the inflammasome, a multi-protein proinflammatory complex. A two-hit model of inflammasome activation in THP1 macrophages was developed that entails an overnight stimulation with LPS followed by a second proinflammatory stimulus, extracellular ATP, which drives inflammasome assembly and subsequent IL-1β release from the cells into the media.

[4] = system: MCP1 in osteoarthritic human synoviocytes; assay: IL-1β-induced MCP1 in osteoarthritic-synoviocytes; format: cell-based; conditions: IL-1β 0.5 ng/mL; 0.5, 0.8 or 1 millimolar DA; 0.1-100 nanomolar Dex
[5] = system: PGE2 release from osteoarthritic human synoviocytes; assay: IL-1β-induced PGE2 and PGD2 release from osteoarthritic-synoviocytes; format: cell-based; conditions: for IC50: Homo sapiens, read-out: IC50 for PGE2 inhibition
[6] = system: PGE2 in primary human osteoarthritic synoviocytes; assay: Early, pretreatment and intracellular vs secreted PGE2 in IL-1β-stimulated human osteoarthritic synoviocytes; format: cell-based
Procedure: The concentrations in FIG. 31A were measured at hour three.
Cells were also treated with IL-IRA which inhibits IL-1β by binding the cell-surface […] and inhibiting its dimerization with the IL-1 receptor (IL-1R), effectively blocking IL-1β signaling.
FIG. 33 illustrates two bar graphs that depict the concentrations of PGE2 inside of the cell versus PGE2 that was secreted into the cell culture media. Specifically, the bar graph labeled “Intracellular” illustrates the concentrations of PGE2 inside of the cell and the bar graph labeled “Supernatent” illustrates the concentration of PGE2 that was secreted into the cell culture media. Synoviocytes were stimulated with IL-1β for 6 hours and then cell culture media harvested separately along with collecting cell lysates. […] To test this, the PGE2 concentrations inside of the cells and in the cell culture media were measured to compare them directly to each other.

[7] = system: PGE2 release from normal human chondrocytes; assay: IL-1β-induced PGE2 release from normal human chondrocyte monolayers, 48 h, competitive EIA; format: cell-based
Procedure: Mechanical stress and inflammation are thought to sustain catabolic cycles of extracellular matrix deterioration during osteoarthritis. In particular, PGE2 correlates with increased protease production and discomfort or pain in osteoarthritis.
After 48-hours, PGE2 release was evaluated by competitive EIA, and relative potency was calculated versus dose responses of Dex alone.
After 48 hours, PGE2 release was evaluated by competitive enzyme immunoassay (EIA), and relative potency was calculated versus Dex alone.
Lac is commonly thought to be simply an end-product of anaerobic glycolysis; however, it may also have immunomodulatory effects and promote protein modifications that alter gene expression. The goal of this experiment was to determine how Lac supplementation affects early-phase, inflammatory, and late-stage redifferentiation in chondrocyte models. To establish how Lac may influence inflammation early in osteoarthritis, monolayers of normal human chondrocytes were exposed to Lac dose responses of up to 100 millimolar, concurrently with 0.5 nanograms per milliliter IL-1β for 48 hours. The release of PGE2 was then quantified using competitive EIA. To investigate how Lac affects transcriptional programs in dedifferentiated osteoarthritic chondrocytes, monolayer cultures and micromass pellets were treated for 14 days with 100 millimolar final concentrations of Lac, with and without 10 nanograms per milliliter transforming growth factor beta 3 (TGF-β3). Total RNA was then isolated, and relative expression of SOX9 or Col2a1 was calculated using qRT-PCR, normalized to GAPDH.

[8] = cited from earlier work
[9] = system: Col2a1 expression in dedifferentiated osteoarthritic chondrocytes; assay: Col2a1 relative expression in high passage osteoarthritic chondrocyte monolayer model with TGF-β; format: cell-based, human; conditions: TGF-β added to the model; 1 mM Try, 0.5 mM DA
Procedure: (§1) These compounds were tested in a high passage osteoarthritic chondrocyte monolayer model, alone or in combination with other agents, for both transcriptional regulation of standard markers and IL-1β-induced PGE2 production.

[10] = system: PGE2 release from normal human chondrocytes; assay: IL-1β-induced PGE2 release from normal human chondrocytes, 24 h, DA vs decanoate working solutions; format: cell-based; conditions: Homo sapiens, Chondrocyte, 25 micromolar, prepared in medium
Procedure: The activity of DA working solutions prepared in either saline or lactated ringer's (LR) isotonic solutions was assessed. […] In addition, concentrated decanoate working solutions in saline or LR were prepared and added to the cultures at a final concentration of 25 micromolar. PGE2 release was then compared to matching points on the DA or decanoate medium as well as saline and LR controls.

[11] = target: Cyclooxygenase-2 (COX-2) (Homo sapiens, UniProt P35354); assay: COX-2 inhibitor screen; format: biochemical; conditions: any of the concentrations tested; Celecoxib positive control
Sequence of Cyclooxygenase-2 (COX-2) (P35354 18-604, species assumed): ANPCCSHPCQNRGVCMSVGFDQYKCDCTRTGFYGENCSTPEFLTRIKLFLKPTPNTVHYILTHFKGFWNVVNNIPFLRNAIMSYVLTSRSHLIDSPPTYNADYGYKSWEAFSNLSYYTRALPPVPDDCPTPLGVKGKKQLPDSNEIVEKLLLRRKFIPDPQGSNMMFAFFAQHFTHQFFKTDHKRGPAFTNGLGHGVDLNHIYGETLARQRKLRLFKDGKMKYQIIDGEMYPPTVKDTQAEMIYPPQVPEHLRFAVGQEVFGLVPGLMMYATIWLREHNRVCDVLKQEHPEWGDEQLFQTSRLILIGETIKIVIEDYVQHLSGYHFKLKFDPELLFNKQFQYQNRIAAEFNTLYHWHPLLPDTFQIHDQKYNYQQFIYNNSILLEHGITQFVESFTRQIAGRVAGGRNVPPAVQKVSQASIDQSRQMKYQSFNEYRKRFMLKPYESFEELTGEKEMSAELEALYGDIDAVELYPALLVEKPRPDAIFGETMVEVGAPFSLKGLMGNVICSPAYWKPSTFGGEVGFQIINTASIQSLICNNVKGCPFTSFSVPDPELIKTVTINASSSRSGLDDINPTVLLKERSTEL
Text: Celecoxib (Celebrex) was used as a positive control for COX-2.

[12] = system: SOX9 expression in human osteoarthritic chondrocytes; assay: SOX9 relative expression in high and low passage osteoarthritic chondrocytes, 7, 14 or 28 days; format: cell-based; conditions: high passage, dedifferentiated osteoarthritic chondrocytes with TGF-β3, 14 days
Text: Media was exchanged bi-weekly. […] SOX9 is a transcription factor vital to the development and maintenance of cartilage and is required for chondrogenesis. SOX9 promotes chondrocyte survival and transcriptionally activates cartilage-specific genes. SOX9 is repressed in hypertrophic chondrocytes (i.e. terminally differentiated osteoblast-like cells).

[13] = system: arachidonic acid (AA) in primary human synoviocytes; assay: Early arachidonic acid in IL-1β-stimulated primary human osteoarthritic synoviocytes, 3 h; format: cell-based; conditions: IL-1β 1 ng/mL
Procedure: Early concentrations of arachidonic acid (AA) present in primary human synoviocytes from patients with osteoarthritis that were stimulated with 1 ng/mL final concentration interleukin 1-beta (β) for 3 hours in the presence of varying concentrations of Dex and DA in view of controls are depicted in FIG. 32. The concentrations of AA in FIG. 32 were normalized to total protein content from the cell lysates using bicinchoninic acid (BCA).

[14] = system: MMP13 expression in dedifferentiated osteoarthritic chondrocytes; assay: MMP13 regulation in high passage osteoarthritic chondrocyte monolayer model, 28 days; format: cell-based, human; conditions: 28 days of treatment; 1 mM Try, 0.5 mM DA
Procedure: as §1

[15] = system: Col2a1 expression in human osteoarthritic chondrocytes; assay: Col2a1 relative expression in human osteoarthritic chondrocytes treated with DA and/or Try with TGF-β3; format: cell-based; conditions: 14-day monolayer culture with TGF-β3; 0.5 mM DA, 1 mM Try
Procedure: (§2) Total mRNA was then isolated at the indicated times, and qRTPCR was performed with primers specific for MMP13, Col2a1, and the housekeeping gene GAPDH. Relative expression was then calculated versus controls, with normalization to GAPDH.

[16] = system: MMP13 expression in human osteoarthritic chondrocytes; assay: MMP13 relative expression in human osteoarthritic chondrocytes treated with DA and/or Try; format: cell-based; conditions: 28-day monolayer culture; 0.5 mM DA, 1 mM Try
Procedure: as §2

In the case of CCCCCCCCCC(=O)O [DA, decanoic acid], the “secreted PGI2 levels” value [1] is reported as “decreases secreted PGI2 levels”, the PLA2 activity inhibition [2] is reported as “no significant signs of PLA2 activity inhibition” and the “increased DA potency by 25 nanomolar Dex” value [3] is reported as 1.917 ×. It also gave an IC50 ([3]; THP-1, DA alone, 0.02 to 1.8 millimolar, three independent experiments) of 125 µM, an IC50 ([3]; THP-1, DA with addition of 25 nanomolar Dex) of 65 µM and an IC50 ([3]; THP-1, repeated experiments comparing DA to sodium decanoate) of 172 µM. The “effect on MCP1” value [4] was “reduction in MCP1 in a dose dependent manner”, the “increase of DA potency by 100 picomolar Dex” value [5] was 2.2 × and the IC50 ([5]; DA alone, IL-1β 0.5 ng/mL) was 19.4 µM. The IC50 ([5]; DA in the presence of 100 picomolar Dex) was 8.62 µM, the “DA concentration above which PGE2 and PGD2 release was inhibited” value ([5]; IL-1β 0.5 ng/mL) was “above 1 micromolar” and the “PGE2 release after pretreatment (5 minutes, 1 hour, or 2 hours) then IL-1β 10 minutes or 1 hour” value ([6]; 200 nanomolar DA or 500 nanograms/milliliter IL-1RA, IL-1β 1 nanogram/milliliter) was “blocked the low-level activation”. For the same compound, the “intracellular versus secreted PGE2” value ([6]; IL-1β 1 ng/ml, 6 hours) was “causes PGE2 to build up intracellularly instead of getting secreted”, the PGE2 concentration ([6]; measured at hour three, IL-1β 1 ng/mL) was “less than 5000 pg/ml” and the inhibition at 500 µM ([7]; Homo sapiens, Chondrocyte, DA 500 micromolar final, IL-1β 500 pg/mL, 48 h) was 100%. For the same compound, the “final concentration at which significant inhibition of PGE2 release was observed” value ([7]; p-value≤0.05 versus medium controls) was 6 µM, the “pKa (negative log of acid dissociation constant)” value [8] was “about 4.9” and the Col2a1 regulation [9] was 26 fold. For the same compound, the inhibition at 25 µM [10] was 62.4%, the “inhibition of COX-2 activity” value [11] was “no observed inhibition” and the SOX9 expression [12] was “increased SOX9 transcription”. For the same compound, the “AA concentration normalized to total protein” value [13] was “lower than that of the control with IL-1β” and the MMP13 regulation [14] was 1.12 fold.

In the case of N[C@@H](Cc1c[nH]c2ccccc12)C(=O)O [Try, tryptophan], the Col2a1 regulation [9] is reported as −1.36 fold, the “Observed Relative expression of Col2a1” value [15] is reported as −1.4 fold and the “Observed Relative expression of MMP13” value [16] is reported as −2.6 fold. The MMP13 regulation [14] was −3.32 fold.
